Results from US20090018106A1, “INTRAVENOUS FORMULATIONS OF PYRIDOXAL 5'- PHOSPHATE AND METHOD OF PREPARATION” (Medicure International Inc., priority 2005, published 2009).
Like-named read-outs stand apart in the source and are kept apart here.

Tests used:
[1] = Once daily intravenous 10 mg/kg P5P for four days, urinary excretion and renal clearance (Example Four); assay type: in vivo, human; settings: P5P 10 mg/kg iv once daily, 4 days, mean; for CL renal: human, urine and plasma, iv, 10 mg/kg, read-out: CLR, renal clearance (converted)
Description: Data sets analyzed—Six (6) healthy, adult non-smokers were administered intravenously a single daily dose of 10 mg/kb of P5P for four consecutive days and completed the study. In accordance with the study protocol, data from all subjects who completed the study were used for pharmacokinetic and statistical analysis.
Analytical Methods—Plasma and urine samples were used for analysis. P5P, PAL, and PA levels were determined by HPLC/FLD. The quantitation level was 5 ng/mL for plasma and 100 ng/mL for urine. The sample analysis calibration curve range was 5 ng/mL to 5000 ng/mL for plasma and 100 ng/mL to 50,000 ng/mL for urine.
Total and Renal Clearance—Total body clearance was estimated for P5P and was calculated as Dose/AUC0-inf.

[2] = Single intravenous dose escalation of P5P, plasma pharmacokinetics (Examples Two and Three); assay type: in vivo, human; settings: for Cmax / MRT / Tmax / half-life / AUC(0-inf) / AUC(0-t): both sexes, human; for Cmax / MRT / Tmax / half-life: plasma, iv; for Significance of b1, lnAUCi / Significance of b1, lnCmax / Significance of b1, lnMRT / Significance of b1, lnThalf / Coef. for Dose (b1), lnAUCi / Coef. for Dose (b1), lnCmax / Coef. for Dose (b1), lnMRT / Coef. for Dose (b1), lnThalf / Intercept (b0), lnAUCi / Intercept (b0), lnCmax / Intercept (b0), lnMRT / Intercept (b0), lnThalf: ln(pK Parameter) = b0 + b1 * ln (Dose); for Coef. for Dose (b1), lnAUCi / Coef. for Dose (b1), lnCmax / Coef. for Dose (b1), lnMRT / Coef. for Dose (b1), lnThalf / Intercept (b0), lnAUCi / Intercept (b0), lnCmax / Intercept (b0), lnMRT / Intercept (b0), lnThalf: single iv 1-20 mg/kg; for dose relationship of plasma AUCinf and Cmax: single iv P5P 1-20 mg/kg
Description: A phase one clinical trial was conducted to compare the pharmacokinetics of intravenously administered P5P and orally administered P5P. The trial was a single dose escalation study.
For intravenous administration, P5P was administered by bolus injection under fasting conditions. The following doses of P5P were studied: 1, 5, 10, and 20 mg/kg. 6 subjects were assigned to each dosage group.
P5P, pyridoxal, and 4-pyridoxic acid were evaluated in both plasma and urine over a 24 hour interval following either intravenous or oral dosing. The results are set out below in Tables 2 and 3.
Methodology—This was a single-blind, single-dose escalation, non-randomized, 4-phase, non-crossover study designed to evaluate the safety and […] subjects under fasting conditions and to estimate pharmacokinetic parameters of P5P.
Subjects were assigned to one of the four groups (six subjects per group) under fasting conditions.
Concentrations of pyridoxal-5′-phosphate (P5P) were measured from the plasma samples collected over a 24-bour interval after dosing in each phase.
Pharmacokinetic parameters: AUCt, AUCinf, Cmax, Tmax, Kel, Thalf, Vd, CL, MRT and F were estimated based on pyridoxal-5′-phosphate (P5P) plasma levels for each subject that was in the final data set.
The test product used was a P5P Intravenous Injectable Solution, 50 mg/ml, which was prepared in accordance with the methods of Example 1 (CanAm BioResearch Inc. Canada); Lot No.: LP1459: Manufacturing Date: 12/03. A single 1, 5, 10 or 20 mg/kg dose was given by intravenous injection. The duration of treatment was a single dose.
Secondary Endpoint—Pharmacokinetic (PK) Parameters—Plasma concentrations of pyridoxal-5′-phosphate (P5P) were measured by a validated analytical method. Based on these concentration levels, AUCt, AUCinf, Cmax, Tmax, Kel, Thalf, Vd, CL, MRT and F were estimated.
Statistical Methods—Descriptive statistics were calculated by treatments for the estimated pharmacokinetic parameters.

[3] = Group 1, P5P 1 mg/kg single iv, plasma PAL, mean
[4] = Group 2, P5P 5 mg/kg single iv, plasma PAL, mean
[5] = Group 3, P5P 10 mg/kg single iv, plasma PAL, mean
[6] = Group 4, P5P 20 mg/kg single iv, plasma PAL, mean
[7] = 1 mg/kg, Group 1, P5P 1 mg/kg single iv, plasma PAL, mean
[8] = 5 mg/kg, Group 2, P5P 5 mg/kg single iv, plasma PAL, mean
[9] = 10 mg/kg, Group 3, P5P 10 mg/kg single iv, plasma PAL, mean
[10] = 20 mg/kg, Group 4, P5P 20 mg/kg single iv, plasma PAL, mean
[11] = over all single iv doses of P5P (1-20 mg/kg), read-out: apparent elimination half-life (converted)
[12] = Group 1, P5P 1 mg/kg single iv, plasma PA, mean
[13] = Group 2, P5P 5 mg/kg single iv, plasma PA, mean
[14] = Group 3, P5P 10 mg/kg single iv, plasma PA, mean
[15] = Group 4, P5P 20 mg/kg single iv, plasma PA, mean
[16] = 1 mg/kg, Group 1, P5P 1 mg/kg single iv, plasma PA, mean
[17] = 5 mg/kg, Group 2, P5P 5 mg/kg single iv, plasma PA, mean
[18] = 10 mg/kg, Group 3, P5P 10 mg/kg single iv, plasma PA, mean
[19] = 20 mg/kg, Group 4, P5P 20 mg/kg single iv, plasma PA, mean

Cc1ncc(CO)c(C=O)c1O [PAL, pyridoxal]
Ae0-t, total amount excreted in urine ([1]; Day 1, PAL): 18583712 ng | Ae0-t, total amount excreted in urine ([1]; Day 4, PAL): 21011635 ng | CL renal ([1]; Day 1, PAL): 14.3 mL/min | CL renal ([1]; Day 4, PAL): 12.1 mL/min | Kel [2, 3]: 0.198 h⁻¹ | Kel [2, 4]: 0.18 h⁻¹ | Kel [2, 5]: 0.167 h⁻¹ | Kel [2, 6]: 0.177 h⁻¹ | Cmax [2, 7]: 591 ng/mL | MRT [2, 7]: 3.7 h | Tmax [2, 7]: 0.46 h | half-life ([2]; 1 mg/kg, Group 1, P5P 1 mg/kg single iv, plasma PAL, mean, read-out: T½ (converted)): 3.96 h | Cmax [2, 8]: 2480 ng/mL | MRT [2, 8]: 4.4 h | Tmax [2, 8]: 0.71 h | half-life ([2]; 5 mg/kg, Group 2, P5P 5 mg/kg single iv, plasma PAL, mean, read-out: T½ (converted)): 4.25 h | Cmax [2, 9]: 13300 ng/mL | MRT [2, 9]: 3.68 h | Tmax [2, 9]: 0.42 h | half-life ([2]; 10 mg/kg, Group 3, P5P 10 mg/kg single iv, plasma PAL, mean, read-out: T½ (converted)): 4.2 h | Cmax [2, 10]: 25900 ng/mL | MRT [2, 10]: 3.98 h | Tmax [2, 10]: 0.32 h | half-life ([2]; 20 mg/kg, Group 4, P5P 20 mg/kg single iv, plasma PAL, mean, read-out: T½ (converted)): 4.01 h | half-life [2, 11]: ~4 h | AUC(0-inf) [2, 3]: 2070 ng·h/mL | AUC(0-t) ([2]; Group 1, P5P 1 mg/kg single iv, plasma PAL, mean, read-out: AUC (0-t)): 2020 ng·h/mL | AUC(0-inf) [2, 4]: 10400 ng·h/mL | AUC(0-t) ([2]; Group 2, P5P 5 mg/kg single iv, plasma PAL, mean, read-out: AUC (0-t)): 10100 ng·h/mL | AUC(0-inf) [2, 5]: 39500 ng·h/mL | AUC(0-t) ([2]; Group 3, P5P 10 mg/kg single iv, plasma PAL, mean, read-out: AUC (0-t)): 39100 ng·h/mL | AUC(0-inf) [2, 6]: 95200 ng·h/mL | AUC(0-t) ([2]; Group 4, P5P 20 mg/kg single iv, plasma PAL, mean, read-out: AUC (0-t)): 94400 ng·h/mL | Significance of b1, lnAUCi [2]: <0.0001 | Significance of b1, lnCmax [2]: <0.0001 | Significance of b1, lnMRT [2]: 0.5671 | Significance of b1, lnThalf [2]: 0.5604 | Coef. for Dose (b1), lnAUCi [2]: 1.30 | Coef. for Dose (b1), lnCmax [2]: 1.30 | Coef. for Dose (b1), lnMRT [2]: 0.02 | Coef. for Dose (b1), lnThalf [2]: 0.03 | Intercept (b0), lnAUCi [2]: 0.56 | Intercept (b0), lnCmax [2]: −0.72 | Intercept (b0), lnMRT [2]: 1.33 | Intercept (b0), lnThalf [2]: 1.33 | dose relationship of plasma AUCinf and Cmax [2]: increase more than expected based on dose

Cc1ncc(CO)c(C(=O)O)c1O [PA, 4-pyridoxic acid]
Ae0-t, total amount excreted in urine ([1]; Day 1, PA): 172950596 ng | Ae0-t, total amount excreted in urine ([1]; Day 4, PA): 225885311 ng | CL renal ([1]; Day 1, PA): 144 mL/min | CL renal ([1]; Day 4, PA): 179 mL/min | Kel [2, 12]: 0.311 h⁻¹ | Kel [2, 13]: 0.332 h⁻¹ | Kel [2, 14]: 0.268 h⁻¹ | Kel [2, 15]: 0.216 h⁻¹ | Cmax [2, 16]: 419 ng/mL | MRT [2, 16]: 4.5 h | Tmax [2, 16]: 1.04 h | half-life ([2]; 1 mg/kg, Group 1, P5P 1 mg/kg single iv, plasma PA, mean, read-out: T½ (converted)): 2.82 h | Cmax [2, 17]: 2450 ng/mL | MRT [2, 17]: 3.48 h | Tmax [2, 17]: 0.71 h | half-life ([2]; 5 mg/kg, Group 2, P5P 5 mg/kg single iv, plasma PA, mean, read-out: T½ (converted)): 2.12 h | Cmax [2, 18]: 5360 ng/mL | MRT [2, 18]: 3.85 h | Tmax [2, 18]: 0.74 h | half-life ([2]; 10 mg/kg, Group 3, P5P 10 mg/kg single iv, plasma PA, mean, read-out: T½ (converted)): 2.73 h | Cmax [2, 19]: 16100 ng/mL | MRT [2, 19]: 4.13 h | Tmax [2, 19]: 0.73 h | half-life ([2]; 20 mg/kg, Group 4, P5P 20 mg/kg single iv, plasma PA, mean, read-out: T½ (converted)): 3.48 h | half-life [2, 11]: 2 to 3.5 h | AUC(0-inf) [2, 12]: 1990 ng·h/mL | AUC(0-t) ([2]; Group 1, P5P 1 mg/kg single iv, plasma PA, mean, read-out: AUC(0-t)): 1500 ng·h/mL | AUC(0-inf) [2, 13]: 10700 ng·h/mL | AUC(0-t) ([2]; Group 2, P5P 5 mg/kg single iv, plasma PA, mean, read-out: AUC(0-t)): 10500 ng·h/mL | AUC(0-inf) [2, 14]: 23000 ng·h/mL | AUC(0-t) ([2]; Group 3, P5P 10 mg/kg single iv, plasma PA, mean, read-out: AUC(0-t)): 22700 ng·h/mL | AUC(0-inf) [2, 15]: 53000 ng·h/mL | AUC(0-t) ([2]; Group 4, P5P 20 mg/kg single iv, plasma PA, mean, read-out: AUC(0-t)): 51900 ng·h/mL | Significance of b1, lnAUCi [2]: <0.0001 | Significance of b1, lnCmax [2]: <0.0001 | Significance of b1, lnMRT [2]: 0.7995 | Significance of b1, lnThalf [2]: 0.2604 | Coef. for Dose (b1), lnAUCi [2]: 1.10 | Coef. for Dose (b1), lnCmax [2]: 1.20 | Coef. for Dose (b1), lnMRT [2]: −0.01 | Coef. for Dose (b1), lnThalf [2]: 0.08 | Intercept (b0), lnAUCi [2]: 0.62 | Intercept (b0), lnCmax [2]: −0.98 | Intercept (b0), lnMRT [2]: 1.37 | Intercept (b0), lnThalf [2]: 0.82 | dose relationship of plasma AUCinf and Cmax [2]: increase more than expected based on dose
